Results as given in patent US11685738B2, “Fluorinated tetrahydronaphthyridinyl nonanoic acid derivatives and uses thereof” (OcuTerra Therapeutics, Inc., priority 2015, dated 2023).

Assays:
[1] = system: bleomycin induced lung stiffness; assay: Bleomycin induced mouse pulmonary fibrosis model (lung stiffness, pressure-volume curves); type: in vivo, male C57BL/6 mice; details: for reversal of bleomycin induced lung stiffness, compared to the vehicle control group: all doses tested (10, 30, 100 mg/kg PO, day 0-21); for reversal of lung stiffness compared to positive control pirfenidone 100 mg/kg BID: mid- and high-dose groups (30 and 100 mg/kg PO)
Method: Experimental animals are randomly and prospectively assigned to groups. On day 0 and prior to bleomycin induction, animals are administered the first dose of vehicle or a compound of the present disclosure. Following dosing, all animals are anesthetized. A small diameter cannula is inserted into the trachea and saline or bleomycin is slowly infused into the lungs. Group 1 serves as an untreated control group and receives saline only (no bleomycin) on day 0. The other groups receive bleomycin on day 0. Treatments with vehicle (e.g., methylcellulose), positive control (e.g., Pirfenidone), or a compound of the present disclosure are administered once or twice daily via oral gavage (PO). All animals are weighed and evaluated daily for respiratory distress.
Prior to sacrifice, animals are anesthetized and once the animal is determined to be non-responsive a shallow incision is made. The trachea is isolated and a transverse cut is made between tracheal rings approximately half-way through the trachea. A tracheotomy is performed by the insertion of a cannula through the incision secured with surgical suture to the trachea. Following cannulation, the adapter end of the cannula is attached to the mechanical ventilator. The animal is ventilated and following an acclimation period, lung volume is standardized and each animal undergoes a measure of total respiratory impedance.
Ninety-five male C57BL/6 mice were randomly and prospectively assigned to one group of fifteen animals and eight groups of ten animals each. On day 0 and at least one hour prior to bleomycin induction, animals were administered the first dose of vehicle or test-article (i.e., a compound of the present disclosure). At least one hour following dosing, all mice were anesthetized with isoflurane and placed on their backs lying on a table at approximately 60°. A small diameter cannula was inserted into the trachea, and saline or bleomycin was slowly infused into the lungs in a volume of 40 μL.
Group 1 served as an untreated control group and received saline only (no bleomycin) on day 0. Groups 2-9 received 2.25 U/kg of bleomycin on day 0. The animals were then released into a recovery cage and allowed to wake up. From day 0 through day 21, treatments were administered once or twice daily via oral gavage (PO). Vehicle treated animals (Group 2) received 0.4% methylcellulose. Remaining animals received either Pirfenidone at 100 mg/kg (Group 3), Compound A15s at 100 mg/kg (Group 4), 30 mg/kg (Group 5) or 10 mg/kg (Group 6), or Compound A21 at 100 mg/kg (Group 7), 30 mg/kg (Group 8) or 10 mg/kg (Group 9).
All animals were weighed and evaluated daily for respiratory distress (defined as an increase in respiratory rate and/or obvious respiratory effort). Animals with severe respiratory distress, or animals that lost greater than 30% of their total starting body weight, were euthanized within 2 hours of observation.
On Day 21, prior to sacrifice, mice were anesthetized with IP injection of ketamine/xylazine (100 mg/kg, 10 mg/kg). Once the animal was determined to be non-responsive a shallow 2 cm vertical incision was made starting from 1 cm below the chin. The trachea was isolated and a transverse cut was made between tracheal rings approximately half-way through the trachea. A tracheotomy was performed by the insertion of an 18 gauge polyethylene cannula through the incision secured with surgical suture to the trachea. Following cannulation, the adapter end of the cannula was attached to the flexiVent mechanical ventilator. The animal was ventilated at 10 ml/kg tidal volume (VT), 150 breaths per minute and 3 cm H2O positive end expiratory pressure (PEEP). Following a 2-minute acclimation period, lung volume was standardized with 1, 6-second deep inflation to a pressure of 30 cm H2O followed by 2 pressure-volume measurements up to 40 ml/kg. […]

[2] = target: αvβ6 (Homo sapiens (Human), UniProt P06756+P18564); assay: αVβ6–LAP-TGF β1 integrin binding assay (integrin-coupled beads, flow cytometry); details: for IC50: ligand LAP TGF-β1; for αvβ8/αvβ6: ratio of αvβ8 IC50 to αvβ6 IC50
Sequence of αvβ6 (P06756 31-992): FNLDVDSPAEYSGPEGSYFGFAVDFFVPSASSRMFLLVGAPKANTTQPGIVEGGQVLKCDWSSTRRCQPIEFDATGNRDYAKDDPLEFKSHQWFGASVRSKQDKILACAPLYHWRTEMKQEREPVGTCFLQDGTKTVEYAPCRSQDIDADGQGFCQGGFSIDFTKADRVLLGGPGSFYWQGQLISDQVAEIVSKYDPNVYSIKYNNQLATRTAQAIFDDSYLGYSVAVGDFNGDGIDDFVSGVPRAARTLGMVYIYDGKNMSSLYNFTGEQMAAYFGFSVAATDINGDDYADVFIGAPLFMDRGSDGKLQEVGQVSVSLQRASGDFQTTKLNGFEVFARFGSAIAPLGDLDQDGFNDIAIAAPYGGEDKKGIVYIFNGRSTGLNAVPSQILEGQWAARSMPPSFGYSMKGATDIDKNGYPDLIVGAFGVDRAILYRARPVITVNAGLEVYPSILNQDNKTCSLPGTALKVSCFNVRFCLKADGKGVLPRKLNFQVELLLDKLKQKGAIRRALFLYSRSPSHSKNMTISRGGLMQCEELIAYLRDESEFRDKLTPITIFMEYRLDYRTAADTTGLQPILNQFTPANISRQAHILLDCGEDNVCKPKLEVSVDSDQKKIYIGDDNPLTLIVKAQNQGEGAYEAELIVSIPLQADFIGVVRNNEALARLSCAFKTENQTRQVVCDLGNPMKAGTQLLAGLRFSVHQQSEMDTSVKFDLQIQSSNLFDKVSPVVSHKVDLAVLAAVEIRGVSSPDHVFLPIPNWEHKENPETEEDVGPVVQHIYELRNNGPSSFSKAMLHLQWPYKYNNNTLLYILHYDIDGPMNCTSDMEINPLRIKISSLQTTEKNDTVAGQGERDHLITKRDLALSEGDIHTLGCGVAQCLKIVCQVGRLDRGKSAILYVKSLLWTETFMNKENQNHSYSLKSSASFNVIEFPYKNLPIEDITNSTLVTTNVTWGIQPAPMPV
Sequence of αvβ6 (P18564 22-707): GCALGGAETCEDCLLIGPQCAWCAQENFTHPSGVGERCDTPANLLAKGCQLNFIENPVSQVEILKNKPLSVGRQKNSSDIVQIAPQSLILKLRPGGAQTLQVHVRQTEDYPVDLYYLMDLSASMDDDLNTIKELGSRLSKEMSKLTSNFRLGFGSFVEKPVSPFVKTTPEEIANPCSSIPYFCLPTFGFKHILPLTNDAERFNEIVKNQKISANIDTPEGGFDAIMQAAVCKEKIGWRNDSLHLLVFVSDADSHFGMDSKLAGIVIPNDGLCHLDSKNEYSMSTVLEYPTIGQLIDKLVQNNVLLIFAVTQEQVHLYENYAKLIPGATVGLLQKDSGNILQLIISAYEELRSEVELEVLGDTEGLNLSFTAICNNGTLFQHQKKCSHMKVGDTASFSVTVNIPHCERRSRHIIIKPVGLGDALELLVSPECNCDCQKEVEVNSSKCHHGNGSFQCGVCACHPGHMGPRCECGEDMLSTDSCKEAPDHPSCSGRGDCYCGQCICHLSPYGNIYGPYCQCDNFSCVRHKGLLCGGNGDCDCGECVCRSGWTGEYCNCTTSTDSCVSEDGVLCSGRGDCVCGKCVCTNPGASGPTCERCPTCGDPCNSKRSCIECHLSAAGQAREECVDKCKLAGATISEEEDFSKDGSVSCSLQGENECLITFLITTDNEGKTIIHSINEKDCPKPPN
Excerpt: (§1) All αV Integrins are known to bind to proteins with a RGD motif. Two RGD ligands were used in this study: Vitronectin (VN) as a ligand for αVβ3 and αVβ5 (Wayner et al., J. Cell Biol., 113 (4), 919-929, 1991), and LAP TGF-β1 (LAP1) as a ligand for αVβ6 and αVβ8 (Rognoni et al., Nat. Med., 20(4): 350-359, 2014). CWHM12 was used as a positive control for αVβ6 and αVβ8 (Henderson et al., Nat. Med. 19(12), 10.1038/nm.3282 2013), and Cilengitide as a positive control for αVβ3 and αVβ5 (Kumar et al., J. Pharmacol. Exp. Ther., 283, 843-853, 1997).
(§2) The integrin coupled Dyna beads were allowed to interact with respective ligands. The integrin-ligand complex was detected with either Primary/Secondary Antibody conjugated with Fluorescein Isothiocyanate (FITC). For αVβ3 and αVβ5, Vitronectin was used as a ligand and a primary antibody conjugated with FITC (Anti-VN-FITC Ab) was used to detect the interaction. For αVβ6 and αVβ8, LAP-TGF (31 was used as ligand and a primary antibody against LAP1 (Anti-LAP1 Ab) and a secondary antibody conjugated with FITC were used to detect the αVβ6/αVβ8-LAP-TGF (31 complex. Fluorescence was measured by Flow Cytometry analysis.
(§3) 5 mg of Dyna beads were weighed in a low protein binding microfuge (Eppendorf) tube (1.5 mL volume). The beads were re-suspended in 1 mL of Sodium Phosphate Buffer and vortexed at high speed for 30 seconds. The tube was then placed in a tube roller and tilt rotated for 10 min. After tilt rotation, the tube was placed on the Magna Spin and the beads were allowed to settle. The supernatant was discarded and the beads were washed three times. The beads were then re-suspended in 100 μL of Sodium Phosphate Buffer and 20 μL of washed beads were distributed into 5 low protein binding Eppendorf tubes (1 mg of beads in each tube). The beads were used for coupling integrins.
(§4) 20 μL of (1 mg) of beads were mixed with 20 μL of integrins (20 μg) and 20 μL of 3 M Ammonium Sulfate solution (final concentration of ammonium sulfate was 1M) to achieve a Bead: Protein ratio of 5 mg:100 μg. The solution was mixed gently and placed in a tube roller and incubated at 37° C. for 16 hours.
(§5) αVβ6/αVβ8 coupled beads were treated with the ligand LAP TGF-β1 (LAP1) at room temperature for 3 hours. The complex (Integrin+Ligand) was then treated with primary Ab (Anti-LAP1 Ab) overnight at 4° C. The whole complex (Integrin+Ligand+Primary Ab) was treated with Secondary Ab conjugated with FITC and incubated for 2 hours. The complex was analyzed by either plate reader or Flow Cytometer.
(§6) 10 μL of αVβ6/αVβ8 coupled beads were taken for the experiment. The concentration of integrins was 10 nM. 10 μL of LAP1 was taken (10 nM for aVβ6 and 20 nM for aVβ8). Reaction between integrin coupled beads and LAP1 was considered as the full reaction, and reaction without LAP1 or a compound of the disclosure was considered as the blank reaction. The samples were incubated in low protein binding tubes at room temperature for 3 hours. The tubes were briefly spun and placed in a Magna spin. The supernatant was removed. The beads were washed with assay buffer twice to remove excess LAP1 and then re-suspended in […] assay buffer containing 1:200 anti-LAP1 Ab (primary Ab). The tubes were placed in a tube roller and incubated at 4° C. overnight. After a brief spin, the tubes were then placed in a Magna spin and the supernatant was removed. The beads were washed with assay buffer twice to remove excess primary Ab and then re-suspended in 150 μL of assay buffer containing 1:500 secondary Ab conjugated with FITC. The tubes were incubated at room temperature for 2 hours in a tube roller. After a brief spin, the tubes were placed in a Magna spin and the supernatant was removed. The beads were washed with assay buffer twice followed by PBS. The beads were then re-suspended in 300 μL of PBS and analyzed by a Flow Cytometer (BD FACSCalibur, Software—BDcell Quest Pro Version 6). […]

[3] = target: αvβ8 (Homo sapiens (Human), UniProt P06756+P26012); assay: αVβ8–LAP-TGF β1 integrin binding assay (integrin-coupled beads, flow cytometry); details: ligand LAP TGF-β1
Sequence of αvβ8 (P06756 31-992): as the sequence (P06756 31-992) above
Sequence of αvβ8 (P26012 43-684): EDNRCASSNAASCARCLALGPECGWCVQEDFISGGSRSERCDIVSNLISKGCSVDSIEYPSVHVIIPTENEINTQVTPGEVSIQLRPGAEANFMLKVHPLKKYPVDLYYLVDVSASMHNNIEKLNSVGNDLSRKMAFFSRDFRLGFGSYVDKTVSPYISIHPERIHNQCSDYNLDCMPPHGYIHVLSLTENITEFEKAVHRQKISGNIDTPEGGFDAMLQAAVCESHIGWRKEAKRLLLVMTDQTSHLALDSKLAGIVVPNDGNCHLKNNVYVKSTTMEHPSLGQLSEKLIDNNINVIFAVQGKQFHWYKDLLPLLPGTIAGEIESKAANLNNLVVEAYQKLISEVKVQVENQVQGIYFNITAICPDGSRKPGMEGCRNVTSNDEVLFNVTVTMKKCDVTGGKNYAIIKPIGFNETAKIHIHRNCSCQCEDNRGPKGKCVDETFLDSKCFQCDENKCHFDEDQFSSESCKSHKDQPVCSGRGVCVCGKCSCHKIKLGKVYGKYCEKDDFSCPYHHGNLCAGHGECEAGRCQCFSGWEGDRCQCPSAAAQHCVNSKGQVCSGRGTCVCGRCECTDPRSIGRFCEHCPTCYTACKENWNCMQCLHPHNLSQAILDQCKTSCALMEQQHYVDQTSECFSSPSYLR
Excerpt: as §1, §2, §3, §4, §5, §6

[4] = target: αvβ3 (Homo sapiens (Human), UniProt P05106+P06756); assay: αVβ3–vitronectin integrin binding assay (integrin-coupled beads, flow cytometry); details: ligand vitronectin
Sequence of αvβ3 (P06756 31-992): as the sequence (P06756 31-992) above
Sequence of αvβ3 (P05106 27-718): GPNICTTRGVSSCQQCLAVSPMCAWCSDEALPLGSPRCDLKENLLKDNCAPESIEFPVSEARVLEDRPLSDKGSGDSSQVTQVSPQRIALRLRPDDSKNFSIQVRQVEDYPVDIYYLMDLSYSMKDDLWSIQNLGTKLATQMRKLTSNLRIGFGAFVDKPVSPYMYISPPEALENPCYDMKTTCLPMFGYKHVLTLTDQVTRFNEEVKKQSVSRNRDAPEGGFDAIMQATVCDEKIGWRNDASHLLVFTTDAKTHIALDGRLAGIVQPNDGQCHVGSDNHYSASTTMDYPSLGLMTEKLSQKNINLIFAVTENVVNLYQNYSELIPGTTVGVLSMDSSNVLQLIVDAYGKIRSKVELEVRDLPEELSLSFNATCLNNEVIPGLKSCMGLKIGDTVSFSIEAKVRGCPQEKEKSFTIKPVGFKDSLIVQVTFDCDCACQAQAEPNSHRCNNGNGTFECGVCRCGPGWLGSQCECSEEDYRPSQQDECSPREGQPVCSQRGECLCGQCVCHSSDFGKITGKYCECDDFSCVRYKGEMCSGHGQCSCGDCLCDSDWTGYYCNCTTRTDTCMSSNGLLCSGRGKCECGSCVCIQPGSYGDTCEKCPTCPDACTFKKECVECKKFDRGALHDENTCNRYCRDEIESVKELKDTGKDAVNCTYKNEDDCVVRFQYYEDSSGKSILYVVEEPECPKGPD
Excerpt: as §1, §2, §3, §4
αVβ3/αVβ5 coupled beads were treated with the ligand at room temperature for 3 hours. The complex (Integrin+Ligand) was then treated with Anti-Vitronectin Ab conjugated with FITC overnight at 4° C. The complex was analyzed by either plate reader or Flow Cytometer.
10 μL of αVβ3/αVβ5 coupled beads were taken for the experiment. The concentration of integrins was 10 nM. 10 μL of vitronectin was taken. The concentration was 10 nM. Reaction between integrin coupled beads and vitronectin was considered as the full reaction, and reaction without vitronectin or a compound of the disclosure was considered as the blank reaction. The samples were incubated in low protein binding tubes at room temperature for 3 hours. The tubes were briefly spun and placed in a Magna spin. The supernatant was then removed. The beads were washed with assay buffer twice to remove excess vitronectin and then re-suspended in 150 μL of assay buffer containing 1:500 Anti-vitronectin Ab conjugated with FITC. The tubes were placed in a tube roller and incubated at 4° C. overnight. […] The beads were then re-suspended in […] PBS and analyzed by a Flow Cytometer (BD FACSCalibur, Software—BD Cell Quest Pro Version 6).
The samples were acquired using a BD FACSCalibur system and analyzed with BD Cell quest pro Version 6. […] Percentage of binding was calculated with respect to full reaction. […]

IC50 [2] [nM]	αvβ8/αvβ6 [2]	IC50 [3] [nM]	IC50 [4] [nM]	Structure (SMILES)	reversal of bleomycin induced lung stiffness, mid- and high-dose groups ([1]; 30 and 100 mg/kg PO, day 0-21)	reversal of bleomycin induced lung stiffness, compared to the vehicle control group [1]	reversal of lung stiffness compared to positive control pirfenidone 100 mg/kg BID [1]	lung stiffness compared to saline treated animal group (no bleomycin) ([1]; mid-dose group (30 mg/kg PO))
9.28	0.64	5.92	–	O=C(O)C[C@@H](c1cccc(C(F)(F)F)c1)N1CCN(CCCc2ccc3c(n2)NCCC3)C1=O [Compound A15s, (S)-3-(2-oxo-3-(3-(5,6,7,8-tetrahydro-1,8-naphthyridin-2-yl)propyl)imidazolidin-1-yl)-3-(3-(trifluoromethyl)phenyl)propanoic acid]	significant reversal of bleomycin induced lung stiffness	reversed bleomycin induced lung stiffness at all doses tested	superior to the positive control pirfenidone	indistinguishable from the saline treated animal group
8.3	1.59	13.2	–	O=C(O)C[C@@H](c1ccc(OC(F)F)nc1)N1CCN(CCCc2ccc3c(n2)NCCC3)C1=O [Compound A1, (S)-3-(6-(difluoromethoxy)pyridin-3-yl)-3-(2-oxo-3-(3-(5,6,7,8-tetrahydro-1,8-naphthyridin-2-yl)propyl)imidazolidin-1-yl)propanoic acid]	–	–	–	–
9.97	6.41	63.9	65.7	O=C(O)CC(CCCCCCc1ccc2c(n1)NCCC2)c1cnc2cc(F)ccc2c1 (centres unmarked) [Compound A5, 3-(7-fluoroquinolin-3-yl)-9-(5,6,7,8-tetrahydro-1,8-naphthyridin-2-yl)nonanoic acid]	–	–	–	–
8.25	2.91	24	–	O=C(O)CC(CCCCCCc1ccc2c(n1)NCCC2)c1cnc2cc(F)c(F)cc2c1 (centres unmarked) [Compound A6, 3-(6,7-difluoroquinolin-3-yl)-9-(5,6,7,8-tetrahydro-1,8-naphthyridin-2-yl)nonanoic acid]	–	–	–	–
17.5	2.02	35.4	–	O=C(O)CC(CCCCCCc1ccc2c(n1)NCCC2)c1cc(Cl)cc(C(F)(F)F)c1 (centres unmarked) [Compound A24, 3-(3-chloro-5-(trifluoromethyl)phenyl)-9-(5,6,7,8-tetrahydro-1,8-naphthyridin-2-yl)nonanoic acid]	–	–	–	–
4.6	10.93	50.3	–	O=C(O)CC(CCCCCCc1ccc2c(n1)NCCC2)c1cccc(C(F)(F)F)c1 (single isomer, unassigned) [Compound A21-2]	–	–	–	–
16.9	2.04	34.4	–	O=C(O)CC(CCCCCCc1ccc2c(n1)NCCC2)c1cc(C(F)(F)F)ccc1F (centres unmarked) [Compound A28]	–	–	–	–
11.6	6.93	80.6	–	O=C(O)CC(CCCCCCc1ccc2c(n1)NCCC2)c1cnc2cc(C(F)(F)F)ccc2c1 (centres unmarked) [Compound A7, 9-(5,6,7,8-tetrahydro-1,8-naphthyridin-2-yl)-3-(7-(trifluoromethyl)quinolin-3-yl)nonanoic acid]	–	–	–	–
–	1.83	–	–	COc1ccc([C@H](CC(=O)O)N2CCN(CCCc3ccc4c(n3)NCCC4)C2=O)cn1 [Compound A30s]	–	–	–	–
7.64	11.54	88.2	–	O=C(O)CC(CCCCCCc1ccc2c(n1)NCCC2)c1cccc(C(F)(F)F)c1 (centres unmarked) [Compound A21]	–	reversed bleomycin induced lung stiffness at all doses tested	similar, if not better, reversal of bleomycin induced lung stiffness	–
